# How the values were obtained:
# dog [1] = conditions: Subchronic oral toxicity in nonrodent, beagle, Feed, dose end: 6 month, group: systemic, systemic / clinical chemistry / albumin-globulin ratio / albumin-globulin ratio + systemic / organ weight / liver / absolute + systemic / …
# rat [2] = conditions: Carcinogenicity; fischer; Oral; Feed; dose end: 24 month; group: systemic; systemic / clinical chemistry / [other] / [other] + systemic / in life observation / body weight / body weight + systemic / in life …
# rat [3] = conditions: Sub-acute repeat dose toxicity, fischer, Oral, Feed, dose end: 28 day, group: systemic
# rat [4] = conditions: Multigenerational reproductive toxicity study, sprague dawley, Oral, Gavage/Intubation, dose end: 1 generation
# rat [5] = conditions: Subchronic oral toxicity in rodents, fischer, Feed, dose end: 13 week, group: systemic
# mouse [6] = conditions: Prenatal developmental toxicity study; other; Oral; Gavage/Intubation; dose end: 18 GD; group: maternal; reproductive / reproductive performance / aborted / aborted + reproductive / reproductive performance / estrous cycle / corpora lutea
# rat [7] = conditions: Subchronic oral toxicity in rodents, Diet, dose end: 90 day
# rat [8] = conditions: Combined chronic toxicity/carcinogenicity, sprague dawley, Oral, Feed, dose end: 24 month, group: systemic
# dog [9] = conditions: Chronic toxicity; beagle; Oral; Feed; dose end: 12 month; group: cholinesterase; cholinesterase / cholinesterase / cholinesterase / erythrocyte cholinesterase (che) + cholinesterase / cholinesterase / cholinesterase / …
# dog [10] = conditions: Subchronic oral toxicity in nonrodent, beagle, Capsule, dose end: 6 month
# rat [11] = conditions: Chronic toxicity, Oral, Feed, dose end: 26 month, group: systemic
# rat [12] = conditions: Combined chronic toxicity/carcinogenicity, wistar, Oral, Feed, dose end: 26 month
# rat [13] = conditions: Developmental neurotoxicity study; long evans; Injection; Subcutaneous; dose end: 30 PND; group: cannot be grouped; cholinesterase / cholinesterase / cholinesterase / cholinesterase (che) + systemic / in life observation / body weight / offspring (pup) …
# rat [14] = conditions: Carcinogenicity, fischer, Oral, Gavage/Intubation, dose end: 103 week, group: systemic
# mouse [15] = conditions: Carcinogenicity; b6c3f1; Oral; Gavage/Intubation; dose end: 104 week; group: systemic; systemic / in life observation / body weight / body weight + systemic / pathology microscopic / stomach / cyst + systemic / pathology …
# mouse [16] = conditions: Subchronic oral toxicity in rodents, b6c3f1, Gavage/Intubation, dose end: 13 week, group: systemic, systemic / pathology microscopic / stomach / cytoplasmic alteration + systemic / pathology microscopic / stomach / hyperkeratosis + systemic…
# rat [17] = conditions: Subchronic oral toxicity in rodents, fischer, Gavage/Intubation, dose end: 13 week, group: systemic
# [18] = systemic / in life observation / food consumption / food consumption + systemic / pathology microscopic / stomach / hyperkeratosis + …
# [19] = systemic / pathology microscopic / stomach / papilloma + systemic / in life observation / body weight / body weight + systemic / in life …
# [20] = group: offspring, developmental / developmental landmark / vaginal opening / vaginal opening + systemic / clinical chemistry / cholesterol / cholesterol + …
# [21] = group: offspring, systemic / organ weight / spleen / absolute
# [22] = group: parental, systemic / organ weight / adrenal gland / absolute + systemic / organ weight / liver / absolute + systemic / organ weight / liver / relative…
# [23] = group: parental, systemic / pathology gross / sperm measure / sperm morphology
# [24] = group: reproductive, reproductive / reproductive performance / mating / mating + reproductive / reproductive performance / estrous cycle / length
# [25] = systemic / in life observation / body weight / body weight gain + systemic / pathology gross / stomach / thickened + systemic / pathology …
# [26] = group: cholinesterase, cholinesterase / cholinesterase / cholinesterase / erythrocyte cholinesterase (che) + cholinesterase / cholinesterase / cholinesterase / …
# [27] = group: systemic, systemic / in life observation / body weight / body weight gain + systemic / in life observation / mortality / mortality
# [28] = systemic / pathology microscopic / nerve / [other] + systemic / pathology microscopic / nerve / proliferation
# [29] = group: cholinesterase, cholinesterase / cholinesterase / cholinesterase / plasma cholinesterase (che)
# [30] = group: systemic, systemic / clinical chemistry / [other] / [other]
# [31] = systemic / pathology microscopic / eye / [other]
# [32] = systemic / pathology microscopic / eye / [other] + systemic / pathology microscopic / eye / atrophy + systemic / pathology microscopic / eye…
# [33] = group: systemic, systemic / in life observation / body weight / body weight + systemic / in life observation / clinical signs / [other] + systemic / in life …
# [34] = systemic / in life observation / clinical signs / defecation (diarrhea) + systemic / in life observation / clinical signs / urination
# [35] = systemic / in life observation / clinical signs / defecation (diarrhea) + systemic / in life observation / clinical signs / urination + …
# [36] = systemic / in life observation / body weight / body weight + systemic / in life observation / clinical signs / defecation (diarrhea) + …
structure (smiles),measurement,setting,value
COc1ccc(O)c(C(C)(C)C)c1 [Butylated hydroxyanisole],LEL,dog [1],54 mg/kg/day
same,LOAEL,dog [1],> 219 mg/kg/day
same,NEL,dog [1],< 54 mg/kg/day
same,NOAEL,dog [1],≥ 219 mg/kg/day
same,LEL,rat [2],1000 mg/kg/day
same,LOAEL,rat [2],> 1000 mg/kg/day
same,NEL,rat [2],< 1000 mg/kg/day
same,NOAEL,rat [2],≥ 1000 mg/kg/day
same,LEL,rat [3]; [18],350 mg/kg/day
same,NEL,rat [3]; [18],< 350 mg/kg/day
same,LOAEL,rat [3]; [19],> 1400 mg/kg/day
same,NOAEL,rat [3]; [19],≥ 1400 mg/kg/day
same,LOAEL,rat [4]; [20],> 500 mg/kg/day
same,NOAEL,rat [4]; [20],≥ 500 mg/kg/day
same,LEL,rat [4]; [21],10 mg/kg/day
same,NEL,rat [4]; [21],< 10 mg/kg/day
same,LOAEL,rat [4]; [22],> 500 mg/kg/day
same,NOAEL,rat [4]; [22],≥ 500 mg/kg/day
same,LEL,rat [4]; [23],10 mg/kg/day
same,NEL,rat [4]; [23],< 10 mg/kg/day
same,NEL,"rat [4]; group: reproductive, reproductive / reproductive performance / mating / mating",100 mg/kg/day
same,LEL,rat [4]; [24],500 mg/kg/day
same,LOAEL,rat [4]; [24],> 500 mg/kg/day
same,NOAEL,rat [4]; [24],≥ 500 mg/kg/day
same,LEL,rat [5]; systemic / clinical chemistry / [other] / [other],250 mg/kg/day
same,NEL,rat [5]; systemic / clinical chemistry / [other] / [other] + systemic / in life observation / body weight / body weight gain + systemic / in life …,125 mg/kg/day
same,LOAEL,rat [5]; [25],> 1000 mg/kg/day
same,NOAEL,rat [5]; [25],≥ 1000 mg/kg/day
same,LEL,mouse [6],500 mg/kg/day
same,LOAEL,mouse [6],> 500 mg/kg/day
same,NEL,mouse [6],< 500 mg/kg/day
same,NOAEL,mouse [6],≥ 500 mg/kg/day
CCOP(=S)(OCC)Oc1ccc([N+](=O)[O-])cc1 [Parathion],LEL,rat [7]; [26],0.4 mg/kg/day
same,LOAEL,rat [7]; [26],4 mg/kg/day
same,NEL,rat [7]; [26],0.04 mg/kg/day
same,NOAEL,rat [7]; [26],0.4 mg/kg/day
same,LEL,rat [7]; [27],4 mg/kg/day
same,LOAEL,rat [7]; [27],4 mg/kg/day
same,NEL,rat [7]; [27],0.4 mg/kg/day
same,NOAEL,rat [7]; [27],0.4 mg/kg/day
same,NEL,rat [8]; systemic / in life observation / clinical signs / abnormal gait,0.25 mg/kg/day
same,LOAEL,rat [8]; [28],2.5 mg/kg/day
same,NOAEL,rat [8]; [28],0.25 mg/kg/day
same,LEL,rat [8]; systemic / pathology microscopic / nerve / [other] + systemic / pathology microscopic / nerve / proliferation + systemic / in life …,2.5 mg/kg/day
same,LEL,dog [9],0.01 mg/kg/day
same,LOAEL,dog [9],0.01 mg/kg/day
same,NEL,dog [9],< 0.01 mg/kg/day
same,NOAEL,dog [9],< 0.01 mg/kg/day
same,LEL,dog [10]; [29],0.0024 mg/kg/day
same,LOAEL,dog [10]; [29],0.0079 mg/kg/day
same,NEL,dog [10]; [29],< 0.0024 mg/kg/day
same,NOAEL,"dog [10]; group: cholinesterase, cholinesterase / cholinesterase / cholinesterase / plasma cholinesterase (che) + cholinesterase / cholinesterase / cholinesterase / brain (…",0.0024 mg/kg/day
same,LEL,dog [10]; [30],0.794 mg/kg/day
same,LOAEL,dog [10]; [30],> 0.794 mg/kg/day
same,NEL,dog [10]; [30],0.0079 mg/kg/day
same,NOAEL,dog [10]; [30],≥ 0.794 mg/kg/day
same,NEL,rat [11]; [31],0.4 mg/kg/day
same,NOAEL,rat [11]; [31],0.4 mg/kg/day
same,LEL,rat [11]; [32],1.6 mg/kg/day
same,LOAEL,rat [11]; [32],1.6 mg/kg/day
same,LEL,rat [12]; [26],0.42 mg/kg/day
same,LOAEL,rat [12]; [26],0.42 mg/kg/day
same,NEL,rat [12]; [26],0.1 mg/kg/day
same,NOAEL,rat [12]; [26],0.1 mg/kg/day
same,LOAEL,rat [12]; [33],> 1.75 mg/kg/day
same,NOAEL,rat [12]; [33],≥ 1.75 mg/kg/day
same,LEL,"rat [12]; group: systemic, systemic / pathology microscopic / eye / [other]",0.53 mg/kg/day
same,NEL,"rat [12]; group: systemic, systemic / pathology microscopic / eye / [other] + systemic / clinical chemistry / aspartate aminotransferase (ast/sgot) / aspartate …",0.14 mg/kg/day
same,LEL,rat [13],1.3 mg/kg/day
same,LOAEL,rat [13],> 1.9 mg/kg/day
same,NEL,rat [13],< 1.3 mg/kg/day
same,NOAEL,rat [13],≥ 1.9 mg/kg/day
CC1(C)S[C@@H]2[C@H](NC(=O)COc3ccccc3)C(=O)N2[C@H]1C(=O)[O-].[K+] [Penicillin VK],LEL,rat [14]; [34],500 mg/kg/day
same,NEL,rat [14]; [34],< 500 mg/kg/day
same,LOAEL,rat [14]; [35],> 1000 mg/kg/day
same,NOAEL,rat [14]; [35],≥ 1000 mg/kg/day
same,LEL,mouse [15],500 mg/kg/day
same,LOAEL,mouse [15],> 1000 mg/kg/day
same,NEL,mouse [15],< 500 mg/kg/day
same,NOAEL,mouse [15],≥ 1000 mg/kg/day
same,LEL,mouse [16],100 mg/kg/day
same,LOAEL,mouse [16],> 3000 mg/kg/day
same,NEL,mouse [16],< 100 mg/kg/day
same,NOAEL,mouse [16],≥ 3000 mg/kg/day
same,LOAEL,rat [17]; [36],> 3000 mg/kg/day
same,NEL,rat [17]; [36],370 mg/kg/day
same,NOAEL,rat [17]; [36],≥ 3000 mg/kg/day
same,LEL,rat [17]; systemic / in life observation / clinical signs / defecation (diarrhea),750 mg/kg/day

# — EPA's ToxRefDB 2
